# Target: KAT2A (Homo sapiens, UniProt Q92830)
# Test: KAT2A degradation, Western Blot (Jess), MOLM-13 cells
# Type: cell-based
# Design: degrader, Western blot
# Settings: MOLM-13 cells, KAT2A, 24 h, Western Blot, vs DMSO; read-out: KAT2A MOLM-13 DC50
# Protocol: MOLM-13 cells or NCI-H1048 cells were used for Western Blot analysis of KAT2A degradation. KAT2B degradation can be measured in a similar manner with NCI-H1048 cells.
# MOLM-13 cells were maintained at 37° C. in 5% CO2 and 90% humidity in RPMI 1640 supplemented with 20% fetal bovine serum (FBS) and 1× penicillin/streptomycin. Cells were plated in full media at 1-2 million cells/2 mL in a 6-well tissue culture treated plate with or without compounds for 24 h at 37° C. in 5% CO2.
# MOLM-13 cells or NCI-H1048 cells were washed with PBS, then lysed with RIPA buffer containing 1×protease and phosphatase inhibitors (SantaCruz Biotechnologies Cat #sc-24948A). Protein was isolated by centrifugation at 12,000×g for 10 minutes at 4° C. and supernatant was collected. Protein was quantified via Bradford assay. Samples were diluted to 4 μg lysate in 16 μL RIPA buffer and then 4 μL of Jess Sample Buffer. Samples were heated at 95° C. for 5 minutes. Samples were loaded onto 12-230 kDa Jess™ Separation Module, 8×25 capillary cartridges (SM-W004, Biotechne). Antibodies loaded were: Primary antibody for KAT2A (GCN5L2 (C26A10) Rabbit mAb (3305, CST)) and for KAT2B (PCAF (C14G9)) Rabbit mAb (3378, CST) at 1:1000 and Anti-Rabbit Detection Module for Jess™ (Cat No #DM-001, Biotechne). Signal was detected by chemiluminescence.
# DC50 values were determined from percent reduction of protein as compared to the DMSO control.
# Sequence of KAT2A (Q92830 whole entry): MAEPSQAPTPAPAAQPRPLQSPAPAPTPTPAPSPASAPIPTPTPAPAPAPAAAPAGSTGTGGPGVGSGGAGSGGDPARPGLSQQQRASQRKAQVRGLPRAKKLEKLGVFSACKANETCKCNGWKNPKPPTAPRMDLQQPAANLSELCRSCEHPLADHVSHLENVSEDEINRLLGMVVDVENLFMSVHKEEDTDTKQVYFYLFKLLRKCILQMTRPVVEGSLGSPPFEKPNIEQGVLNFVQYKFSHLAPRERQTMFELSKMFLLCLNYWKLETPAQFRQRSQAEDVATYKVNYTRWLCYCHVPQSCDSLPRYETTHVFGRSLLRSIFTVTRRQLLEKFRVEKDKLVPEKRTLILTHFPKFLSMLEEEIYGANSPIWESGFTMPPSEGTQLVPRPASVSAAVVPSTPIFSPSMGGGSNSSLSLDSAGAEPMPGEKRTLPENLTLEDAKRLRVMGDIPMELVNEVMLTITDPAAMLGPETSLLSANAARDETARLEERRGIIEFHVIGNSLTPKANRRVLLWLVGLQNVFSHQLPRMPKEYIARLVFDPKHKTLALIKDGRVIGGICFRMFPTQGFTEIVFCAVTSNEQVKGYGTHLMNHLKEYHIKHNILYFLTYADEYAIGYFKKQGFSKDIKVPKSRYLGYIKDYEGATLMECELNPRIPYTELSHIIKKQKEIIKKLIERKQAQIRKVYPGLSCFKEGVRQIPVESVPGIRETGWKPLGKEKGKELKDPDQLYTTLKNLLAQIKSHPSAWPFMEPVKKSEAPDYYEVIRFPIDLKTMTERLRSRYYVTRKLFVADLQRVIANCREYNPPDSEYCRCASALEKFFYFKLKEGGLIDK
row,SMILES,DC50
1,CN1C[C@H](Nc2cnn(C)c(=O)c2Br)C[C@H](c2ccc(CN3CC4(CCN(c5ccc(C6CCC(=O)NC6=O)cc5)CC4)C3)cc2)C1 (some centres unmarked) [Compound 154],< 1 nM
2,CN(Cc1ccc(Oc2cccc3c2C(=O)N(C2CCC(=O)NC2=O)C3=O)cc1)Cc1ccc([C@H]2C[C@@H](Nc3cnn(C)c(=O)c3Br)CN(C)C2)cc1 (some centres unmarked) [Compound 48],< 1 nM
3,Cc1ccc(OC2CCN(C(=O)c3ccc([C@H]4C[C@@H](Nc5cnn(C)c(=O)c5Br)CN(C)C4)cc3)CC2)cc1C1CCC(=O)NC1=O (some centres unmarked) [Compound 121],1 to 30 nM
4,CN1C[C@H](Nc2cnn(C)c(=O)c2Br)C[C@H](c2ccc(CN3CCC4(CC3)CCN(c3ccc(C5CCC(=O)NC5=O)c(F)c3)CC4)cc2)C1 (some centres unmarked) [Compound 156],< 1 nM
5,CN1C[C@H](Nc2cnn(C)c(=O)c2)C[C@H](c2ccc(CN3CCC(c4ccc5c(c4)CN(C4CCC(=O)NC4=O)C5=O)CC3)cc2)C1 (some centres unmarked) [Compound 85],> 30 nM
6,CN1C[C@H](Nc2cnn(C)c(=O)c2Br)C[C@H](c2ccc(C(=O)N3CCN(CC4CCN(c5ccc6c(c5)C(=O)N(C5CCC(=O)NC5=O)C6=O)CC4)CC3)cc2)C1 (some centres unmarked) [Compound 111],< 1 nM
7,CN1C[C@H](Nc2cnn(C)c(=O)c2Br)C[C@H](c2ccc(C(=O)N3CCN(c4ccc(F)c(C5CCC(=O)NC5=O)c4)CC3)cc2)C1 (some centres unmarked) [Compound 153],1 to 30 nM
8,CN1C[C@H](Nc2cnn(C)c(=O)c2Cl)C[C@H](c2ccc(CN3CCC(c4cccc5c4CN(C4CCC(=O)NC4=O)C5=O)CC3)cc2)C1 (some centres unmarked) [Compound 94],> 30 nM
9,CN1C[C@H](Nc2cnn(C)c(=O)c2Br)C[C@H](c2ccc(C(=O)N3CCN(Cc4ccc5c(c4)CN(C4CCC(=O)NC4=O)C5=O)CC3)cc2)C1 (some centres unmarked) [Compound 71],< 1 nM
10,CN1C[C@H](Nc2cnn(C)c(=O)c2Br)C[C@H](c2ccc(COc3ccc(C4CCC(=O)NC4=O)cc3)cc2)C1 (some centres unmarked) [Compound 151],1 to 30 nM
11,CN1C[C@H](Nc2cnn(C)c(=O)c2Br)C[C@H](c2ccc(CN3CCC(Oc4ccc(F)c(C5CCC(=O)NC5=O)c4)CC3)cc2)C1 (some centres unmarked) [Compound 132],< 1 nM
12,CN1C[C@H](Nc2cnn(C)c(=O)c2Br)C[C@H](c2ccc(C(=O)N3CCC(c4ccc5c(c4)CN(C4CCC(=O)NC4=O)C5=O)CC3)cc2)C1 (some centres unmarked) [Compound 63],< 1 nM
13,CN1C[C@H](Nc2cnn(C)c(=O)c2Br)C[C@H](c2ccc(CN3CC4(C3)CN(c3cccc(C5CCC(=O)NC5=O)c3)C4)cc2)C1 (some centres unmarked) [Compound 160],> 30 nM
14,CN1C[C@H](Nc2cnn(C)c(=O)c2Br)C[C@H](c2ccc(C(=O)N3CCN(Cc4ccc(C(=O)Nc5cccc6c5C(=O)N(C5CCC(=O)NC5=O)C6=O)cc4)CC3)cc2)C1 (some centres unmarked) [Compound 6],< 1 nM
15,CN1C[C@H](Nc2cnn(C)c(=O)c2Br)C[C@H](c2ccc(C(=O)N(C)Cc3ccc(Oc4cccc5c4C(=O)N(C4CCC(=O)NC4=O)C5=O)cc3)cc2)C1 (some centres unmarked) [Compound 33],< 1 nM
16,CN1C[C@H](Nc2cnn(C)c(=O)c2Br)C[C@H](c2ccc(C(=O)N3CCC4(CC3)CCN(c3ccc(F)c(C5CCC(=O)NC5=O)c3)CC4)cc2)C1 (some centres unmarked) [Compound 169],< 1 nM
17,CN1C[C@H](Nc2cnn(C)c(=O)c2Cl)C[C@H](c2ccc(C(=O)N3CCC4(CC3)CCN(c3cccc(C5CCC(=O)NC5=O)c3)CC4)cc2)C1 (some centres unmarked) [Compound 163],< 1 nM
18,CN1C[C@H](Nc2cnn(C)c(=O)c2Br)C[C@H](c2ccc(C(=O)N3CCC(c4ccc5c(c4)CN(C4CCC(=O)NC4=O)C5=O)CC3)cc2)C1 (some centres unmarked) [Compound 172],1 to 30 nM
19,CN1C[C@H](Nc2cnn(C)c(=O)c2Br)C[C@H](c2ccc(CN3CCC(c4ccc5c(c4)C(=O)N(C4CCC(=O)NC4=O)C5=O)C3)cc2)C1 (some centres unmarked) [Compound 130],1 to 30 nM
20,CN1C[C@H](Nc2cnn(C)c(=O)c2Br)C[C@H](c2ccc(C(=O)N3CCC(C(=O)N4CCN(c5cccc6c5C(=O)N(C5CCC(=O)NC5=O)C6=O)CC4)CC3)cc2)C1 (some centres unmarked) [Compound 10],1 to 30 nM
21,CN1C[C@H](Nc2cnn(C)c(=O)c2Br)C[C@H](c2ccc(CN3CCN(c4cccc(N5CCC(=O)NC5=O)c4)CC3)cc2)C1 [Compound 101],1 to 30 nM
22,CN1C[C@H](Nc2cnn(C)c(=O)c2Br)C[C@H](c2ccc(CN3CCC4(CC3)CCN(c3ccc(C5CCC(=O)NC5=O)cc3)CC4)cc2)C1 (some centres unmarked) [Compound 88],< 1 nM
23,CN1C[C@H](Nc2cnn(C)c(=O)c2Br)C[C@H](c2ccc(CN3CCC4(CCN(c5ccc(C6CCC(=O)NC6=O)cc5)C4)C3)cc2)C1 (some centres unmarked) [Compound 89],< 1 nM
24,CN1C[C@H](Nc2cnn(C)c(=O)c2Br)C[C@H](c2ccc(C(=O)NC3CCN(c4cccc5c4C(=O)N(C4CCC(=O)NC4=O)C5=O)CC3)cc2)C1 (some centres unmarked) [Compound 15],1 to 30 nM

row,SMILES,DC50
1,CN1C[C@H](Nc2cnn(C)c(=O)c2Br)C[C@H](c2ccc(C(=O)N3CCC(Oc4cccc(C5CCC(=O)NC5=O)c4)CC3)cc2)C1 (some centres unmarked) [Compound 119],1 to 30 nM
2,CN1C[C@H](Nc2cnn(C)c(=O)c2Br)C[C@H](c2ccc(C(=O)N3CCN(Cc4ccc5c(c4)C(=O)N(C4CCC(=O)NC4=O)C5=O)CC3)cc2)C1 (some centres unmarked) [Compound 25],< 1 nM
3,CN1C[C@H](Nc2cnn(C)c(=O)c2Br)C[C@H](c2ccc(CNc3ccc4c(c3)C(=O)N(C3CCC(=O)NC3=O)C4=O)cc2)C1 (some centres unmarked) [Compound 106],< 1 nM
4,CN1C[C@H](Nc2cnn(C)c(=O)c2Cl)C[C@H](c2ccc(C(=O)N3CCN(Cc4ccc5c(c4)CN(C4CCC(=O)NC4=O)C5=O)CC3)cc2)C1 (some centres unmarked) [Compound 76],1 to 30 nM
5,CN1C[C@H](Nc2cnn(C)c(=O)c2Br)C[C@H](c2ccc(CN3CC(c4ccc5c(c4)CN(C4CCC(=O)NC4=O)C5=O)C3)cc2)C1 (some centres unmarked) [Compound 139],< 1 nM
6,CN1C[C@H](Nc2cnn(C)c(=O)c2Br)C[C@H](c2ccc(C(=O)N3CC4(CN(Cc5ccc6c(c5)C(=O)N(C5CCC(=O)NC5=O)C6=O)C4)C3)cc2)C1 (some centres unmarked) [Compound 60],1 to 30 nM
7,CN1C[C@H](Nc2cnn(C)c(=O)c2Br)C[C@H](c2ccc(CN3CC4(C3)CN(c3cccc5c3C(=O)N(C3CCC(=O)NC3=O)C5=O)C4)cc2)C1 (some centres unmarked) [Compound 51],> 30 nM
8,CN1C[C@H](Nc2cnn(C)c(=O)c2Br)C[C@H](c2ccc(CN3CC4(C3)CN(c3ccc5c(c3)CN(C3CCC(=O)NC3=O)C5=O)C4)cc2)C1 (some centres unmarked) [Compound 37],< 1 nM
9,CN1C[C@H](Nc2cnn(C)c(=O)c2Br)C[C@H](c2ccc(CN3CCN(Oc4cccc5c4CN(C4CCC(=O)NC4=O)C5=O)CC3)cc2)C1 (some centres unmarked) [Compound 99],< 1 nM
10,CN1C[C@H](Nc2cnn(C)c(=O)c2Br)C[C@H](c2ccc(C(=O)N3CCN(CC4CCN(c5cccc6c5C(=O)N(C5CCC(=O)NC5=O)C6=O)CC4)CC3)cc2)C1 (some centres unmarked) [Compound 9],< 1 nM
11,CN1C[C@H](Nc2cnn(C)c(=O)c2Br)C[C@H](c2ccc(C(=O)N3CC4(CCN(c5ccc(C6CCC(=O)NC6=O)cc5)CC4)C3)cc2)C1 (some centres unmarked) [Compound 144],< 1 nM
12,CN1C[C@H](Nc2cnn(C)c(=O)c2Br)C[C@H](c2ccc(CN3CCC4(CC3)CCN(c3cccc(C5CCC(=O)NC5=O)c3)CC4)cc2)C1 (some centres unmarked) [Compound 134],< 1 nM
13,CN1C[C@H](Nc2cnn(C)c(=O)c2Br)C[C@H](c2ccc(C(=O)N(C)c3cccc(Oc4cccc5c4C(=O)N(C4CCC(=O)NC4)C5=O)c3)cc2)C1 (some centres unmarked) [Compound 26],1 to 30 nM
14,CN1C[C@H](Nc2cnn(C)c(=O)c2Br)C[C@H](c2ccc(C(=O)N(C)c3ccc(CCCOc4cccc5c4C(=O)N(C4CCC(=O)NC4=O)C5=O)cc3)cc2)C1 (some centres unmarked) [Compound 2],1 to 30 nM
15,CN1C[C@H](Nc2cnn(C)c(=O)c2Br)C[C@H](c2ccc(C(=O)N3CCC(N4CCN(C5CCC(=O)NC5=O)CC4)CC3)cc2)C1 (some centres unmarked) [Compound 161],> 30 nM
16,CN1C[C@H](Nc2cnn(C)c(=O)c2Cl)C[C@H](c2ccc(C(=O)N3CCC(c4cccc5c4CN(C4CCC(=O)NC4=O)C5=O)CC3)cc2)C1 (some centres unmarked) [Compound 91],> 30 nM
17,CN1C[C@H](Nc2cnn(C)c(=O)c2Cl)C[C@H](c2ccc(C(=O)N3CCN(Cc4ccc(C(=O)Nc5cccc6c5C(=O)N(C5CCC(=O)NC5=O)C6=O)cc4)CC3)cc2)C1 (some centres unmarked) [Compound 46],1 to 30 nM
18,CN1C[C@H](Nc2cnn(C)c(=O)c2Br)C[C@H](c2ccc(COc3cccc4c3C(=O)N(C3CCC(=O)NC3=O)C4=O)cc2)C1 (some centres unmarked) [Compound 38],1 to 30 nM
19,CN1C[C@H](Nc2cnn(C)c(=O)c2Br)C[C@H](c2ccc(C(=O)N3CC(c4ccc5c(c4)CN(C4CCC(=O)NC4=O)C5=O)C3)cc2)C1 (some centres unmarked) [Compound 138],< 1 nM
20,CN1C[C@H](Nc2cnn(C)c(=O)c2Br)C[C@H](c2ccc(C(=O)N3CCN(CCOCCC(=O)Nc4cccc5c4C(=O)N(C4CCC(=O)NC4=O)C5=O)CC3)cc2)C1 (some centres unmarked) [Compound 7],1 to 30 nM
21,CN1C[C@H](Nc2cnn(C)c(=O)c2Br)C[C@H](c2ccc(C(=O)N3CCC(Oc4cccc5c4C(=O)N(C4CCC(=O)NC4=O)C5=O)CC3)cc2)C1 (some centres unmarked) [Compound 19],1 to 30 nM
22,CN1C[C@H](Nc2cnn(C)c(=O)c2Br)C[C@H](c2ccc(C(=O)N3CCN(C4CCN(C5CCC(=O)NC5=O)CC4)CC3)cc2)C1 (some centres unmarked) [Compound 149],1 to 30 nM
23,CN1C[C@H](Nc2cnn(C)c(=O)c2Cl)C[C@H](c2ccc(CN3CC(c4ccc5c(c4)CN(C4CCC(=O)NC4=O)C5=O)C3)cc2)C1 (some centres unmarked) [Compound 141],< 1 nM

# From patent US20260306640A1, “TECHNOLOGIES TARGETING CELL STATES” (Auron Therapeutics, Inc., priority 2023, published 2026)
